We go through one compound from patent US20050171206A1, “Therapeutical use” (priority 2004, published 2005).

The test system of data set [1] is children with SMA II. The experiment in a line: Side effects (Example 2). It is filed as in vivo, human. Here is the method: The sodium salt of phenylbutyrate (triButyrate®) was administered orally in powder or tablets at 500 mg/kg/d (maximum dose 19 g/d), divided in 5 doses (every 4 hours except for an 8 hours night interval). An intermittent schedule (7 days on and 7 days off) was arbitrarily chosen, similarly to a previously reported schedule for treatment of sickle cell disease.

Data set [2] concerns children with SMA II. Kind of data set: Joint contractures (Example 2). It is filed as in vivo, human. The conditions noted are these: between baseline and 9 weeks. Here is the method:
(§1) Measurements lasted 3 to 5 seconds. The scores were grouped in a leg mega score and arm megascore by adding the best readings for each individual muscle within the subgroup and subdividing this score by the number of muscles examined. Intra-observer variation performed before the implementation of the study was less than 5%. Both myometry and measurement of joint contractures were performed by the same physiotherapist.

For data set [3] the following is noted: 200 g per person and day; cited from earlier work.
The subject of data set [4] is children with SMA II older than 5 years (muscle strength). The experiment in a line: Myometry, hand held electronic myometer (Example 2). It counts as in vivo, human. Also on record: myometry: unit not given here. Particulars: for myometry: individual children. How it is done: (§2) The sodium salt of phenylbutyrate (triButyrate®) was administered orally in powder or tablets at 500 mg/kg/d (maximum dose 19 g/d), divided in 5 doses (every 4 hours except for an 8 hours night interval). An intermittent schedule (7 days on and 7 days off) was arbitrarily chosen, similarly to a previously reported schedule for treatment of sickle cell disease. (Atweh G F, Sutton M, Nassif I, Boosalis V, Dover G J, Wallen-stein S, Wright E, McMahon L, Stamatoyannopoulos G, Faller D V, Perrine S P Blood.1999;93:1790-97.) When this dosage was tolerated, patients were advised to continue for 9 weeks (5 weeks on and 4 weeks off).
(§3) The assessment consisted of a detailed clinical physiotherapy evaluation including the Hammersmith functional motor scale and, in children older than 5 years, assessment of muscle strength and of forced vital capacity.
as §1

The test system of the next data set is SMN2 genes. The conditions noted are these: in vitro, cell cultures; cited from earlier work.
The subject of data set [5] is children with SMA II (motor function). The experiment in a line: Hammersmith functional motor scale, open trial in SMA II children (Example 2). It counts as in vivo, human. The conditions noted are these: for Hammersmith functional scale score, mean: 10 children, baseline mean 13.
Source text: Thirteen patients with SMA II, all with homozygous absence of SMN1, followed at the Bambino Gesu Hospital or at the UILDM centre in Rome were asked to participate in the present prospective open trial. In order to have a relatively homogeneous cohort of patients who could all be tested on the same scale only children with SMA II between 30 months and 12 years were included. Children younger than 30 months were excluded as the Hammersmith scale can only be reliably and consistently performed and scored after this age. (Main M, Kairon H, Mercuri E, Muntoni F. Eur J Paediatr Neurol. 2003;7:155-59.) Children older than 12 were excluded as after this age several complications, such as severe scoliosis and contractures are more frequent. Children who had been part of other pharmacological trials (e.g. salbutamol, creatine) in the year before the present trial started or who had had corrective surgery for scoliosis were also excluded.
as §2, §3
The scale consists of 20 items, each scored on a 3 point scoring system, (2 for unaided, 1 for assistance and 0 for inability). A total score can be achieved by summing the scores for all the individual items. The score can range from 0, if all the activities are failed, to 40, if all the activities are achieved.
All items have to be tested without thoracic braces or leg orthoses. The scale can be completed in a maximum of 15 minutes. (Main M, Kairon H, Mercuri E, Muntoni F. Eur J Paediatr Neurol. 2003;7:155-59.)
The scale was performed by 2 examiners (MP, SM) and each child was always assessed by the same examiner throughout the 3 assessments. Both observers had training sessions with a senior physiotherapist (MM) and the intra and inter-rater reliability was formally assessed in 5 children before starting the trial. In agreement with the previously reported data on intra and inter-observer reliability, these were >95%. (Main M, Kairon H, Mercuri E, Muntoni F. Eur J Paediatr Neurol. 2003;7:155-59.)
The primary measure of efficacy in this trial was the change from baseline to 3 and 9 weeks in motor function as determined by the Hammersmith motor scale. Secondary measures included the change from baseline to 3 and 9 weeks in myometry scores and in FVC in the children older than 5 years. The primary outcome was analysed using repeated measures ANOVA. Statistical significance was determined at p<0.05. An estimate of SD of change in each of the measures considered is presented with 95% confidence intervals. The number of children older than 5 years who could be reliably assessed for myometry and FVC was too small to allow any meaningful statistical analysis for these measures.

For data set [6], the system named is SMA patients (muscle strength). The experiment in a line: Myometry with hand-held dynamometer, day 0 and day 7 (Example 1). It counts as in vivo, human. How it is done:
Six SMA patients (P1-P6) and three parents (M2, M3, F6) were enrolled for a pilot trial. Four patients had SMA type II (P1-P4). P1 is a child who had lost the ability to sit unaided. P3 is […] and P4 and P5 are both […]. Two patients (P5 and P6) had SMA type III. The trial was approved by the Ethical Committee of the Catholic University. A written informed consent was obtained from all patients/parents. triButyrate®, the sodium salt of phenylbutyrate was administered at 500 mg/kg/d (maximum dose 19 g/d), divided in 6 doses(every 4 hours) for 7 days. Blood samples were taken from patients and parents on day 0 (T0, baseline) and on days 1-4 (T1-T4) and 7 (T7) of drug administration, and from 5 healthy untreated controls on 5 consecutive days (T0-T4). Total RNA was extracted by Trizol from leukocytes immediately after hypotonic lysis of samples.
Muscle strength was assessed using a hand-held dynamometer (Citec, CIT Technics BV). (Merlini L, Mazzone E S, Solari A, Morandi L. Muscle Nerve 2002; 26:64-70) Patients were tested independently four times by two raters, and the highest measure of the maximal voluntary isometric contraction was selected. Inter-rater coefficients (ICC) were determined as described by Shrout et al. (Shrout P E, Fleiss J L. Pscychol Bull 1979; 86:420-428)
F of Fisher, ANOVA and T of Student for independent variables tests were performed to assess statistical significance by using Winstat 4.01 and SPSS 10.0.1 for Windows software. P values <0.05 were accepted as significant.

Several values for one entry are separate records, joined by “and”; a condition that tells them apart may be missing. Equal entries are not always repeated.

As to `O=C([O-])CCCc1ccccc1.[Na+]` [triButyrate®, Sodium 4-phenylbutyrate], the tolerability result in the data set with children with SMA II [1] (500 mg/kg/d oral, intermittent, 9 weeks) is “generally well tolerated”. In the data set with children with SMA II [1] (after the second dose, did not recur), the stomach ache entry was “Three very young children complained of stomach ache”. Besides, in the data set with children with SMA II [1] (children who completed the trial), the “children who found the taste of the drug very unpleasant” value is “Eight of the 10”. For the same compound, the “children who reported an unpleasant odour when sweating” value in the data set on children with SMA II [1] (of the eight who found the taste unpleasant) was “seven”. Further, the “adverse event leading to discontinuation” value with children with SMA II [1] (one child, after the second week of treatment started) is reported as “skin rash”. Further, in the data set on children with SMA II [2], the “major joint's ranges (hips, knees, hamstrings, tendon Achilles and elbows)” value is “no difference”. Also, in data set [3], the side-effect entry is given as “increased blood pressure”. Further, the “myometry, patients with increase” value in data set [4] (4 patients older than 5 years) was “clear increase in 3 of the 4”. Moreover, the myometry in data set [4] (T1, 3 weeks) was 0.18 and 0.41 and 0.09 and 0.38; in data set [4] (T2, 9 weeks), 0.17 and 0.45 and 0.09 and 0.46. The “expression of the SMN2 genes” value with SMN2 genes is recorded as “can increase SMN2 gene expression in vitro”. In data set [5] (9 weeks, 7 days on and 7 days off), the “motor function in the treated children” value was “significant increase in motor function”. For the same compound, the “children in the study group with an increase in functional scores” value in data set [5] (9 weeks, intermittent regimen) is “nine out of ten”. For the same compound, the “Hammersmith functional scale score, mean” value in data set [5] (T1, 3 weeks after treatment was started) was 14.8; in data set [5] (T2, 9 weeks after treatment was started), 17 and 16.6. The “children with an increase in functional scores of more than 2 points” value in data set [5] (of the ten children, 9 weeks) was 6. Moreover, in data set [6] (T7 = day 7, P2, P3, P4 (type II), P6 (type III)), the Foot dorsiflexion was 15 (0.6) Newtons and 9 (0.81) Newtons and 11 (0.81) Newtons and 11 (0.9) Newtons. Further, the Arm strength result in data set [6] (patients P3 and P4, less obvious than leg strength) was “increased”. The “leg muscle strength on day 7 compared to baseline” value in data set [6] (three type II patients (P2-4), statistically significant in P3 and P4) is “increase in leg muscle strength”. Also, the “muscle performance by myometry” value in data set [6] (type III case (P6), reduced dosage) is on record as “no changes in muscle performance”.
